Activity calls are given as the source filed them. The rule behind the calls is not given here.
Key:
HeLa [1] = assay: Phototoxicity against human HeLa cells assessed as inhibition of cell viability preincubated for 3 hrs followed by photo-irradiation of 54 J/cm2 for 24 hrs by CCK8 assay; type: functional, cell-based; conditions: light or radiation study
[2] = Dark cytotoxicity against human HeLa cells assessed as inhibition of cell viability incubated for 3 hrs by CCK8 assay; type: toxicity, cell-based
[3] = Dark cytotoxicity against human HepG2 cells assessed as inhibition of cell viability incubated for 3 hrs by CCK8 assay; type: toxicity, cell-based
HeLa [4] = assay: Antitumor activity against human HeLa cells xenografted in nude BALB/c nu/nu mouse assessed as decrease in tumor growth at 2.5 umol/kg, iv with light irradiation of 30 J/cm2 for 1 hr measured after 24 hrs; type: functional, organism-based; conditions: dose 2.5 µmol/kg, time 25.0 hrs
[5] = Drug uptake in human HeLa cells assessed as fold increase in fluorescence intensity at 5 uM incubated for 3 hrs by fluorescence imaging based analysis relative to control; type: ADME, cell-based
HeLa [6] = assay: Induction of cell death in human HeLa cells assessed as increase in bright red signal at 400 nM incubated for 3 hrs followed by light irradiation of 54 J/cm2 by Calcein-AM/PI staining based analysis; type: functional
[7] = Toxicity in nude BALB/c nu/nu mouse bearing human HeLa cells assessed as pathological change in heart at 2.5 umol/kg, iv with light irradiation of 30 J/cm2 for 1 hr measured for 24 hrs by H and E staining based analysis; type: organism-based; conditions: in vivo, 25 h, dose 2.5 µmol/kg
[8] = Toxicity in nude BALB/c nu/nu mouse bearing human HeLa cells assessed as pathological change in spleen at 2.5 umol/kg, iv with light irradiation of 30 J/cm2 for 1 hr measured for 24 hrs by H and E staining based analysis; type: organism-based; conditions: in vivo, 25 h, dose 2.5 µmol/kg
[9] = Biodistribution in kidney of nude BALB/c nu/nu mouse bearing human HeLa cells at 2.5 umol/kg, iv measured for 3 hrs by IVIS analysis; type: ADME, organism-based; conditions: in vivo, dose 2.5 µmol/kg
[10] = Toxicity in nude BALB/c nu/nu mouse bearing human HeLa cells assessed as pathological change in liver at 2.5 umol/kg, iv with light irradiation of 30 J/cm2 for 1 hr measured for 24 hrs by H and E staining based analysis; type: organism-based; conditions: in vivo, 25 h, dose 2.5 µmol/kg
HeLa [11] = assay: Antitumor activity against human HeLa cells xenografted in nude BALB/c nu/nu mouse assessed as pathological damage in tumor at 2.5 umol/kg, iv with light irradiation of 30 J/cm2 for 1 hr measured after 24 hrs by H and E staining based analysis; type: functional, organism-based; conditions: dose 2.5 µmol/kg, time 25.0 hrs
[12] = Drug uptake in lipid droplet of human HeLa cells at 5 uM incubated for 3 hrs by BODIPY 493/503 dye based analysis; type: ADME, subcellular
[13] = Biodistribution in lung of nude BALB/c nu/nu mouse bearing human HeLa cells at 2.5 umol/kg, iv measured for 3 hrs by IVIS analysis; type: ADME, organism-based; conditions: in vivo, dose 2.5 µmol/kg
HeLa [14] = assay: Induction of ROS generation in human HeLa cells assessed as increase in green fluorescence incubated for 3 hrs followed by light irradiation of 54 J/cm2 by H2DCFDA staining based analysis; type: functional, cell-based; conditions: dose 25-200 nM
[15] = Drug uptake in mitochondria of human HeLa cells at 5 uM incubated for 3 hrs by MitoTracker Green FM dye based analysis; type: ADME
[16] = Biodistribution in liver of nude BALB/c nu/nu mouse bearing human HeLa cells at 2.5 umol/kg, iv measured for 3 hrs by IVIS analysis; type: ADME, organism-based; conditions: in vivo, dose 2.5 µmol/kg
HeLa [17] = assay: Induction of cell death in human HeLa cells assessed as increase in bright red signal at 400 nM incubated for 3 hrs followed by light irradiation of 54 J/cm2 in presence of Fer-1 inhibitor by Calcein-AM/PI staining based analysis; type: functional
[18] = Drug uptake in lysosome of human HeLa cells at 5 uM incubated for 3 hrs by LysoTracker Green DND-26 dye based analysis; type: ADME, subcellular
[19] = Biodistribution in skin of nude BALB/c nu/nu mouse bearing human HeLa cells at 2.5 umol/kg, iv measured for 3 hrs by IVIS analysis; type: ADME, organism-based, Skin of body; conditions: in vivo, dose 2.5 µmol/kg
HeLa [20] = assay: Induction of cell death in human HeLa cells assessed as increase in bright red signal at 400 nM incubated for 3 hrs followed by light irradiation of 54 J/cm2 in presence of Lip-1 inhibitor by Calcein-AM/PI staining based analysis; type: functional
[21] = Toxicity in nude BALB/c nu/nu mouse bearing human HeLa cells assessed as pathological change in kidney at 2.5 umol/kg, iv with light irradiation of 30 J/cm2 for 1 hr measured for 24 hrs by H and E staining based analysis; type: organism-based; conditions: in vivo, 25 h, dose 2.5 µmol/kg
HepG2 = assay: Phototoxicity against human HepG2 cells assessed as inhibition of cell viability preincubated for 3 hrs followed by photo-irradiation of 54 J/cm2 for 24 hrs by CCK8 assay; type: functional, cell-based; conditions: HepG2, light or radiation study
[22] = Toxicity in nude BALB/c nu/nu mouse bearing human HeLa cells assessed as steady body weight increment at 2.5 umol/kg, iv with light irradiation at 30 J/cm2 for 1 hr measured for 24 hrs; type: organism-based; conditions: in vivo, 25 h, dose 2.5 µmol/kg
HeLa [23] = assay: Induction of cell death in human HeLa cells under dark condition upto 400 nM incubated for 3 hrs by Calcein-AM/PI staining based analysis; type: functional
[24] = Drug uptake in endoplasmic reticulum of human HeLa cells at 5 uM incubated for 3 hrs by ER-Tracker Green dye based analysis; type: ADME, subcellular
HeLa [25] = assay: Biodistribution in human HeLa cells xenografted in nude BALB/c nu/nu mouse at 2.5 umol/kg, iv measured for 3 hrs by IVIS analysis; type: ADME, organism-based; conditions: in vivo, dose 2.5 µmol/kg
HeLa [26] = assay: Induction of ROS generation in human HeLa cells without light irradiation at 200 nM incubated for 3 hrs by H2DCFDA staining based analysis; type: functional, cell-based
HeLa [27] = assay: Induction of lipid peroxidation in human HeLa cells assessed as increase in green fluorescence with a light dose of 54 J/cm2 at 100 to 400 nM incubated for 3 hrs by BODIPY 581/591 C11 dye based analysis; type: functional, cell-based; conditions: dose 100-400 nM
[28] = Toxicity in nude BALB/c nu/nu mouse bearing human HeLa cells assessed as drug tolerance at 2.5 umol/kg, iv with light irradiation of 30 J/cm2 for 1 hr measured for 24 hrs; type: organism-based; conditions: in vivo, 25 h, dose 2.5 µmol/kg
[29] = Toxicity in nude BALB/c nu/nu mouse bearing human HeLa cells assessed as pathological change in lung at 2.5 umol/kg, iv with light irradiation of 30 J/cm2 for 1 hr measured for 24 hrs by H and E staining based analysis; type: organism-based; conditions: in vivo, 25 h, dose 2.5 µmol/kg
[30] = Biodistribution in spleen of nude BALB/c nu/nu mouse bearing human HeLa cells at 2.5 umol/kg, iv measured for 3 hrs by IVIS analysis; type: ADME, organism-based; conditions: in vivo, dose 2.5 µmol/kg
HeLa [31] = assay: Induction of cell death in human HeLa cells assessed as increase in bright red signal at 400 nM incubated for 3 hrs followed by light irradiation of 54 J/cm2 in presence of DFO inhibitor by Calcein-AM/PI staining based analysis; type: functional
[32] = Drug uptake in human HeLa cells assessed as increase in red fluorescence signal at 5 uM incubated for 3 hrs by fluorescence imaging based analysis; type: ADME, cell-based

For `COc1ccc(C2=[N+]3C(=Nc4c(-c5cccnc5)c(I)c(-c5ccc(OC)cc5)n4[B-]3(F)F)C(c3ccccc3)=C2)cc1`, the IC50 (HeLa [1]) was 42.9 nM and the IC50 at 3 h [2] was 17100 nM.

`COc1ccc(C2=[N+]3C(=Nc4c(-c5ccc[n+](C)c5)c(I)c(-c5ccc(OC)cc5)n4[B-]3(F)F)C(c3ccccc3)=C2)cc1` gave an IC50 (HeLa [1]) of 214 nM and an IC50 at 3 h [2] of 11200 nM.

In the case of `C=Cc1c(C)c2cc3nc(c(CC(=O)O)c4[nH]c(cc5nc(cc1[nH]2)C(C)=C5CC)c(C)c4C(=O)O)[C@@H](CCC(=O)O)[C@@H]3C` [CHLORIN E6], the IC50 at 3 h [3] is reported as > 50000 nM, the Activity (HeLa [4]) is reported as “inactive” and the IC50 at 3 h [2] is reported as > 50000 nM.

In the case of `COc1ccc(C2=[N+]3C(=Nc4c(-c5ccccc5)c(Br)c(-c5ccc(OC)cc5)n4[B-]3(F)F)C(c3ccccc3)=C2Br)cc1`, the IC50 (HeLa [1]) is reported as 64.2 nM and the IC50 at 3 h [2] is reported as 41700 nM.

`COc1ccc(C2=[N+]3C(=Nc4c(-c5ccc[n+](C)c5)c5c(n4[B-]3(F)F)-c3ccc(OC)cc3CC5)C(c3ccccc3)=C2I)cc1` showed an IC50 (HeLa [1]) of 41.8 nM and an IC50 at 3 h [2] of 2300 nM.

For `COc1ccc(-c2c(I)c(-c3cccnc3)c3n2[B-](F)(F)[N+]2=C4C(=C(c5ccccc5)C2=N3)CCc2cc(OC)ccc24)cc1`, the “fold change (FC)” value [5] was 6, the Activity (HeLa [6]) was “Active” and the IC50 at 3 h [3] was > 50000 nM. The Activity [7] was “Non-Toxic”, the Activity [8] was “Non-Toxic” and the Drug uptake [9] was “Active”. The Activity [10] was “Non-Toxic”, the Activity (HeLa [11]) was “Active” and the Drug uptake [12] was “Active”. The Drug uptake [13] was “Active”, the Activity (HeLa [14]) was “Dose-Dependent Effect” and the Drug uptake [15] was “Not Active”. The Drug uptake [16] was “Active”, the IC50 (HeLa [1]) was 10.4 nM and the Activity (HeLa [17]) was “inactive”. The Drug uptake [18] was “Not Active”, the Drug uptake [19] was “Not Active” and the Activity (HeLa [20]) was “inactive”. For the same molecule, the Activity [21] was “Non-Toxic”, the IC50 (HepG2) was 6.9 nM and the Activity (HeLa [4]) was “Active”. For the same molecule, the Activity [22] was “Non-Toxic”, the Activity (HeLa [23]) was “inactive” and the Drug uptake [24] was “Not Active”. The Drug uptake (HeLa [25]) was “Active”, the Activity (HeLa [26]) was “inactive” and the Activity (HeLa [27]) was “Active”. For the same molecule, the Activity [28] was “Non-Toxic”, the Activity [29] was “Non-Toxic” and the Drug uptake [30] was “Active”. The IC50 at 3 h [2] was > 50000 nM and the Activity (HeLa [31]) was “Active”.

For `COc1ccc(-c2c(I)c(-c3ccccn3)c3n2[B-](F)(F)[N+]2=C4C(=C(c5ccccc5)C2=N3)CCc2cc(OC)ccc24)cc1`, the IC50 at 3 h [3] was > 50000 nM, the IC50 (HeLa [1]) was 12.1 nM and the IC50 (HepG2) was 7.2 nM. It also gave an IC50 at 3 h [2] of 17900 nM.

`COc1ccc(-c2c(I)c(-c3ccc[n+](C)c3)c3n2[B-](F)(F)[N+]2=C4C(=C(c5ccccc5)C2=N3)CCc2cc(OC)ccc24)cc1` gave an IC50 (HeLa [1]) of 6 nM and an IC50 at 3 h [2] of 1200 nM.

With `COc1ccc(-c2c(I)c(-c3ccncc3)c3n2[B-](F)(F)[N+]2=C4C(=C(c5ccccc5)C2=N3)CCc2cc(OC)ccc24)cc1` the IC50 at 3 h [3] was > 50000 nM, the IC50 (HeLa [1]) was 6.1 nM and the IC50 (HepG2) was 11.1 nM. The IC50 at 3 h [2] was > 50000 nM.

For `COc1ccc(C2=[N+]3C(=Nc4c(-c5cccnc5)c5c(n4[B-]3(F)F)-c3ccc(OC)cc3CC5)C(c3ccccc3)=C2I)cc1`, the IC50 at 3 h [3] was > 50000 nM, the IC50 (HeLa [1]) was 19.1 nM and the IC50 (HepG2) was 7.5 nM. For the same molecule, the IC50 at 3 h [2] was 37400 nM.

Molecule `COc1ccc(C2=[N+]3C(=Nc4c(-c5ccncc5)c(I)c(-c5ccc(OC)cc5)n4[B-]3(F)F)C(c3ccccc3)=C2)cc1` has an IC50 (HeLa [1]) of 50.1 nM and an IC50 at 3 h [2] of 20600 nM.

In the case of `COc1ccc(C2=[N+]3C(=Nc4c(-c5ccccc5)c5c(n4[B-]3(F)F)-c3ccc(OC)cc3CC5)C(c3ccccc3)=C2I)cc1`, the IC50 at 3 h [3] is reported as > 50000 nM, the Activity (HeLa [4]) is reported as “Active” and the Drug uptake [32] is reported as “Active”. For the same molecule, the IC50 at 3 h [2] was > 50000 nM.

With `COc1ccc(-c2c(I)c(-c3cc[n+](C)cc3)c3n2[B-](F)(F)[N+]2=C4C(=C(c5ccccc5)C2=N3)CCc2cc(OC)ccc24)cc1` the IC50 (HeLa [1]) was 129 nM and the IC50 at 3 h [2] was 3300 nM.

With `COc1ccc(C2=[N+]3C(=Nc4c(-c5ccncc5)c5c(n4[B-]3(F)F)-c3ccc(OC)cc3CC5)C(c3ccccc3)=C2I)cc1` the IC50 at 3 h [3] was > 50000 nM, the IC50 (HeLa [1]) was 33.9 nM and the IC50 (HepG2) was 35.8 nM. The IC50 at 3 h [2] was 37200 nM.

Molecule `COc1ccc(-c2c(I)c(-c3cccc[n+]3C)c3n2[B-](F)(F)[N+]2=C4C(=C(c5ccccc5)C2=N3)CCc2cc(OC)ccc24)cc1` has an IC50 (HeLa [1]) of 118 nM and an IC50 at 3 h [2] of 6100 nM.

Source: ChEMBL document CHEMBL5579882, “Synthesis and Photodynamic Activities of Pyridine- or Pyridinium-Substituted Aza-BODIPY Photosensitizers” (J Med Chem, 2024)
